Results published in patent US4761414A, “Substituted 1H-pyrimido[1,2-a-]-pyrido[3,4-e]pyrazine 6 oxides” (G. D. Searle & Co., priority 1986, dated 1988).
In brackets after ≈: the same amount, converted by molar mass. Where a name gives a salt, the structure may show the parent alone. Read-outs that look alike come from different tables or passages of the source.

What was measured:
B. fragilis WS-1 = test: MIC/MBC against Bacteroides fragilis strain E; assay type: cell-based
Experimental: (§1) The screening panel utilized in this Example consisted of 5 strains of Bacteroides fragilis. All assays were carried out in 96-well microtitre plates. If an isolate was obtained from either a culture collection or clinical source, the isolate was immediately inoculated into Wilkens-Chalgren broth (Oxoid) and incubated at 37° C. in an anaerobic chamber in an atmosphere of 85% nitrogen, 10% carbon dioxide, and 5% hydrogen for 48 hours. At the end of this time, the viable count was about 10^12 organisms/ml broth. A 1 ml aliquot of each culture was placed in an ampoule and quick frozen in acetone-dry ice mixture and stored in liquid nitrogen. When an inoculum was utilized in an assay, one of the ampoules was thawed and diluted with fresh broth to yield a suspension having a count of 5×10^5 organisms/ml. A 100 μl aliquot of this suspension was inoculated into each well of the microtitre plate. A 2 mg sample of the test compound was dissolved in 0.2 ml of a suitable solvent such as dimethylsulfoxide, polyethylene glycol 200 or methanol. […] After addition of the test solution the final inoculum level was 10^5 cells/ml. The plates were incubated for 48 hours at 37° C. in the anaerobic chamber. The Minimum Inhibitory Concentration (MIC) was read visually. The MIC is defined as the lowest concentration at which there is no detectable growth. The Minimum Bactericidal Concentration (MBC) was determined by taking 50 μl aliquot from each well and placing it in fresh medium. […] The strains of Bacteroides fragilis utilized in the above procedure are identified by letter in accordance with the following legend: |E B. fragilis WS-1*

B. fragilis NCTC 9343 = test: MIC/MBC against Bacteroides fragilis strain B; assay type: cell-based
Experimental: as §1, with “|B” for “|E”, “NCTC 9343” for “WS-1*”

B. fragilis NCTC 9344 = test: MIC/MBC against Bacteroides fragilis strain C; assay type: cell-based
Experimental: as §1, with “|C” for “|E”, “NCTC 9344” for “WS-1*”

B. fragilis NCTC 10581 = test: MIC/MBC against Bacteroides fragilis strain A (96-well microtitre plates, anaerobic chamber); assay type: cell-based; conditions: for MBC / MIC: Bacteroides fragilis; for MBC: NCTC10581, 99.9% reduction in viable count; for MIC: NCTC10581, 48 h
Experimental: as §1, with “|A” for “|E”, “NCTC 10581” for “WS-1*”

[1] = system: B. fragilis MZ-R ATCC 11295; test: MIC/MBC against Bacteroides fragilis strain D; assay type: cell-based
Experimental: The screening panel utilized in this Example consisted of 5 strains of Bacteroides fragilis. All assays were carried out in 96-well microtitre plates. If an isolate was obtained from either a culture collection or clinical source, the isolate was immediately inoculated into Wilkens-Chalgren broth (Oxoid) and incubated at 37° C. in an anaerobic chamber in an atmosphere of 85% nitrogen, 10% carbon dioxide, and 5% hydrogen for 48 hours. At the end of this time, the viable count was about 10^12 organisms/ml broth. A 1 ml aliquot of each culture was placed in an ampoule and quick frozen in acetone-dry ice mixture and stored in liquid nitrogen. When an inoculum was utilized in an assay, one of the ampoules was thawed and diluted with fresh broth to yield a suspension having a count of 5×10^5 organisms/ml. A 100 μl aliquot of this suspension was inoculated into each well of the microtitre plate. A 2 mg sample of the test compound was dissolved in 0.2 ml of a suitable solvent such as dimethylsulfoxide, polyethylene glycol 200 or methanol. […] After addition of the test solution the final inoculum level was 10^5 cells/ml. The plates were incubated for 48 hours at 37° C. in the anaerobic chamber. The Minimum Inhibitory Concentration (MIC) was read visually. The MIC is defined as the lowest concentration at which there is no detectable growth. The Minimum Bactericidal Concentration (MBC) was determined by taking 50 μl aliquot from each well and placing it in fresh medium.

[2] = system: Campylobacter fetus ss. jejuni ATCC 29428; test: MIC vs panel of anaerobes; assay type: cell-based; conditions: ATCC29428, procedures of Example 40
B. fragilis 23745 = conditions: p.o., after infection and twice daily for 2 days; log CFU/ml liver homogenate; test compound; bishydrochloride
[3] = system: Clostridium perfringens NCTC 8237; test: microbe, parasite or virus in culture; assay type: cell-based; conditions: Clostridium perfringens NCTC 8237; procedures of Example 40; bishydrochloride
[4] = system: B. melanogenicus ATCC 15032; test: MIC vs panel of anaerobes; assay type: cell-based; conditions: procedures of Example 40
P. anaerobius = test: MIC vs panel of anaerobes; assay type: cell-based; conditions: Peptostreptococcus anaerobius, procedures of Example 40
[5] = system: Clostridium perfringens NCTC 523; test: microbe, parasite or virus in culture; assay type: cell-based; conditions: Clostridium perfringens NCTC 523; procedures of Example 40; bishydrochloride
[6] = system: Fusobacterium necrophorum ATCC 11295; test: MIC vs panel of anaerobes; assay type: cell-based; conditions: Fusobacterium necrophorum ATCC 11295; procedures of Example 40; bishydrochloride
[7] = system: Campylobacter fetus ss. jejuni NCTC 10842; test: MIC vs panel of anaerobes; assay type: cell-based; conditions: NCTC10842, procedures of Example 40
[8] = system: Costridium difficile NCIB 10666; test: MIC vs panel of anaerobes; assay type: cell-based, C. difficile; conditions: procedures of Example 40
Peptostreptococcus = test: MIC vs panel of anaerobes; assay type: cell-based; conditions: procedures of Example 40
Peptococcous magnus = test: MIC vs panel of anaerobes; assay type: cell-based; conditions: procedures of Example 40

CCC1(C)CN=C2C(c3ccc(C)cc3)=[N+]([O-])c3cccnc3N2C1 (stereo not shown) [Example 35, 2,3-Dihydro-2-ethyl-2-methyl-5-(4-methylphenyl)-1H-pyrimido[1,2-a]pyrido[3,2-e]pyrazine 6-oxide] was tested, and the MBC (B. fragilis WS-1; WS1, 99.9% reduction in viable count) was under 0.8 µg/mL, the MIC (B. fragilis WS-1; WS1, 48 h, 48 hours, 37° C., anaerobic) was under 0.8 µg/mL and the MBC (B. fragilis NCTC 9343; NCTC9343, 99.9% reduction in viable count) was under 0.8 µg/mL. For the same molecule, the MIC (B. fragilis NCTC 9343; NCTC9343, 48 h, 48 hours, 37° C., anaerobic) was under 0.8 µg/mL, the MBC (B. fragilis NCTC 9344; NCTC9344, 99.9% reduction in viable count) was under 0.8 µg/mL and the MIC (B. fragilis NCTC 9344; NCTC9344, 48 h, 48 hours, 37° C., anaerobic) was under 0.8 µg/mL. For the same molecule, the MBC (B. fragilis NCTC 10581) was under 0.8 µg/mL, the MIC (B. fragilis NCTC 10581; 48 hours, 37° C., anaerobic) was under 0.8 µg/mL and the MBC ([1]; ATCC11295, 99.9% reduction in viable count) was under 0.8 µg/mL. It also gave an MIC ([1]; ATCC11295, 48 h, 48 hours, 37° C., anaerobic) of under 0.8 µg/mL.
For CC1(C)CN=C2C(c3ccccc3)=[N+]([O-])c3cccnc3N2C1 [Example 39, 2,3-dihydro-2,2-dimethyl-5-phenyl-1H-pyrimido[1,2-a]pyrido[3,2-e]pyrazine 6-oxide bishydrochloride], the MIC [2] was 50 µg/mL, the “DOSE GIVING 1 LOG REDUCTION” value (B. fragilis 23745) was 0.7 mg/kg and the “DOSE GIVING 1 LOG REDUCTION (molar)” value (B. fragilis 23745) was 1.8 μM/Kg. For the same molecule, the MIC [3] was 6.2 µg/mL, the MIC [4] was 100 µg/mL and the MIC (P. anaerobius) was 100 µg/mL. For the same molecule, the MIC [5] was 1.5 µg/mL, the MIC [6] was 1.5 µg/mL and the MIC [7] was 25 µg/mL. The MIC ([8]; C. difficile NCIB 10666, bishydrochloride) was 1.5 µg/mL.
Cc1ncc([N+](=O)[O-])n1CCO [Metronidazole, metronidazole, reference compound] was tested, and the MIC (Peptostreptococcus) was 100 µg/mL (≈ 584 µM), the “MBC, strain A” value (B. fragilis NCTC 10581; 99.9% reduction in viable count) was 1.5 µg/mL (≈ 8.76 µM) and the “MIC, strain A” value (B. fragilis NCTC 10581; 48 hours, 37° C., anaerobic) was 1.5 µg/mL (≈ 8.76 µM). The MBC (B. fragilis NCTC 10581) was under 0.8 µg/mL, the MIC (B. fragilis NCTC 10581; 48 hours, 37° C., anaerobic) was under 0.8 µg/mL and the MIC (Peptococcous magnus) was under 0.8 µg/mL. For the same molecule, the MIC [7] was 3.1 µg/mL (≈ 18.1 µM) and the MIC ([8]; Clostridioides difficile, NCIB10666, C. difficile NCIB 10666, read-out: MIC) was under 0.8 µg/mL.
